For 15 compounds, Activity and IC50 results are on record in ChEMBL document CHEMBL3608204, “neo-Clerodane Diterpenoids from Scutellaria barbata and Their Inhibitory Effects on LPS-Induced Nitric Oxide Production” (J Nat Prod, 2015).

The test system of data set [1] is RAW264.7. The data set can be described thus: Cytotoxicity against mouse RAW264.7 cells assessed as cell viability at IC50 by colorimetric assay. Format: cell-based.
The subject of data set [2] is RAW264.7. The data set can be described thus: Inhibition of LPS-induced nitric oxide production in mouse RAW264.7 cells after 24 hrs by Griess reaction. Format: functional, cell-based. The conditions noted are these: RAW264.7, 24 h. For orientation: The Griess reaction detects nitrite, a stable product of nitric oxide.

As for `CC(=O)O[C@@H](CC1=C(O)C(=O)OC1)[C@]1(C)C2CCC=C(C)[C@]2(C)[C@@H](OC(=O)c2cccnc2)[C@H](OC(=O)c2ccccc2)[C@]1(C)O` (stereo not given in full), in the data set with RAW264.7 [1], the Activity entry is listed as “Non-toxic”. The same compound came in with an IC50 in the data set with RAW264.7 [2] of more than 50 µM.

For the compound `CC1=CCCC2[C@@]1(C)[C@@H](OC(=O)c1cccnc1)[C@H](O)[C@]1(C)O[C@]3(COC(=O)C3)C[C@H](OC(=O)c3cccnc3)[C@]21C` (stereo not given in full), in the data set on RAW264.7 [1], the Activity result is “Non-toxic”. Also, the IC50 in the data set on RAW264.7 [2] was more than 50 µM.

As for `CC(=O)O[C@H]1[C@H](OC(C)=O)[C@]2(C)O[C@]3(CC[C@]2(C)C2[C@H](OC(=O)c4ccccc4)CC=C(C)[C@@]21C)COC(=O)C3` (stereo not given in full), the Activity result with RAW264.7 [1] is recorded as “Non-toxic”. The compound also showed an IC50 in the data set on RAW264.7 [2] of more than 50 µM.

For `C[C@@]12[C@@H](OC(=O)c3cccnc3)[C@H](OC(=O)c3ccccc3)[C@](C)(O)[C@](C)(/C=C/C3=CC(=O)OC3)[C@H]1CC=C[C@]2(C)O` [SCUTEBARBATINE F], the Activity entry with RAW264.7 [1] is listed as “Non-toxic”. In the data set with RAW264.7 [2], the IC50 was more than 50 µM.

Turning to `C=C1CCCC2[C@@]1(C)[C@@H](OC(=O)c1ccccc1)[C@H](O)[C@]1(C)O[C@]3(COC(=O)C3)C[C@H](OC(=O)c3ccccc3)[C@]21C` (stereo not given in full), in the data set on RAW264.7 [1], the Activity result is “Non-toxic”. Besides, in the data set on RAW264.7 [2], the IC50 amounted to 20.6 µM.

For `CC1=CC[C@@H](OC(=O)c2ccccc2)C2[C@@]1(C)[C@@H](OC(=O)c1cccnc1)[C@H](OC(=O)c1cccnc1)[C@]1(C)O[C@]3(CC[C@]21C)COC(=O)C3` (stereo not given in full), the Activity entry in the data set with RAW264.7 [1] is “Non-toxic”. Also, it took 20.2 µM to reach half-maximal inhibition in the data set on RAW264.7 [2] (IC50).

For `CC1=CC[C@@H](OC(=O)c2ccccc2)C2[C@@]1(C)[C@@H](OC(=O)c1cccnc1)[C@H](O)[C@]1(C)O[C@@]3(CC[C@]21C)COC(=O)C3` (stereo not given in full), the Activity result in the data set on RAW264.7 [1] is “Non-toxic”. In the data set on RAW264.7 [2], this compound showed an IC50 of 34.2 µM.

For the compound `CC(=O)O[C@@H](CC1=C(O)C(=O)OC1)[C@]1(C)C2CCC=C(C)[C@]2(C)[C@@H](OC(=O)c2cccnc2)[C@H](O)[C@]1(C)O` (stereo not given in full), the Activity result with RAW264.7 [1] is listed as “Non-toxic”. Further, the IC50 in the data set with RAW264.7 [2] was more than 50 µM.

Regarding `CC1=CCCC2[C@@]1(C)[C@@H](OC(=O)c1cccnc1)[C@H](OC(=O)c1cccnc1)[C@](C)(O)[C@]2(C)/C=C/C1=CC(=O)OC1` (stereo not given in full), the Activity result with RAW264.7 [1] is given as “Non-toxic”. For the same compound, half-maximal inhibition with RAW264.7 [2] (IC50) required 26.3 µM.

In the case of `CC1=CC[C@@H](OC(=O)c2ccccc2)C2[C@@]1(C)[C@@H](OC(=O)c1cccnc1)[C@H](OC(=O)c1ccccc1)[C@]1(C)O[C@]3(CC[C@]21C)COC(=O)C3` (stereo not given in full), the Activity entry in the data set on RAW264.7 [1] is “Non-toxic”. Besides, the IC50 with RAW264.7 [2] is more than 50 µM.

For `CC1=CC[C@@H](OC(=O)c2cccnc2)C2[C@@]1(C)[C@@H](OC(=O)c1cccnc1)C[C@]1(C)O[C@@]3(CC[C@]21C)COC(=O)C3` (stereo not given in full), the Activity result with RAW264.7 [1] is recorded as “Non-toxic”. This compound also showed an IC50 in the data set with RAW264.7 [2] of 35.6 µM.

Turning to `CC1=CC[C@@H](OC(=O)c2cccnc2)C2[C@@]1(C)[C@@H](OC(=O)c1cccnc1)[C@H](OC(=O)c1ccccc1)[C@]1(C)O[C@]3(CC[C@]21C)COC(=O)C3` (stereo not given in full), the Activity entry in the data set on RAW264.7 [1] is on record as “Non-toxic”. In addition, in the data set on RAW264.7 [2], 21.5 µM corresponded to half-maximal inhibition (IC50).

Consider `CC1=CCCC2[C@@]1(C)[C@@H](OC(=O)c1cccnc1)[C@H](OC(=O)c1ccccc1)[C@](C)(O)[C@]2(C)/C=C/C1=CC(=O)OC1` (stereo not given in full), for which the Activity entry in the data set with RAW264.7 [1] is listed as “Non-toxic”. Further, in the data set with RAW264.7 [2], the IC50 is 22.8 µM.

Turning to `CC(=O)O[C@@H](CC1=C(O)C(=O)OC1)[C@]1(C)C2CCC=C(C)[C@]2(C)[C@@H](OC(=O)c2cccnc2)[C@H](OC(=O)c2cccnc2)[C@]1(C)O` (stereo not given in full), in the data set with RAW264.7 [1], the Activity result was “Non-toxic”. Further, in the data set with RAW264.7 [2], the IC50 was more than 50 µM.

In the case of `CC1=CCCC2[C@@]1(C)[C@@H](OC(=O)c1ccccc1)[C@H](OC(=O)c1cccnc1)[C@](C)(O)[C@]2(C)/C=C/C1=CC(=O)OC1` (stereo not given in full), the Activity entry in the data set with RAW264.7 [1] is on record as “Non-toxic”. The compound further yielded an IC50 with RAW264.7 [2] of 27.7 µM.

For orientation: IC50 means the concentration needed to halve the response being measured. A low value points to greater potency in that assay.
